# Legend:
# [1] = target: T1, 5-HT3 receptor (Rattus norvegicus, UniProt P35563); test: Serotonin (5-HT3) radioligand receptor binding assay ([3H]-GR65630, rat brain cortex membranes)
# T1 construct: Brain cortices are obtained from male rats and a membrane fraction prepared by standard techniques; from tissue; host or cells: rat brain cortex membranes
# T1 sequence (P35563 24-483): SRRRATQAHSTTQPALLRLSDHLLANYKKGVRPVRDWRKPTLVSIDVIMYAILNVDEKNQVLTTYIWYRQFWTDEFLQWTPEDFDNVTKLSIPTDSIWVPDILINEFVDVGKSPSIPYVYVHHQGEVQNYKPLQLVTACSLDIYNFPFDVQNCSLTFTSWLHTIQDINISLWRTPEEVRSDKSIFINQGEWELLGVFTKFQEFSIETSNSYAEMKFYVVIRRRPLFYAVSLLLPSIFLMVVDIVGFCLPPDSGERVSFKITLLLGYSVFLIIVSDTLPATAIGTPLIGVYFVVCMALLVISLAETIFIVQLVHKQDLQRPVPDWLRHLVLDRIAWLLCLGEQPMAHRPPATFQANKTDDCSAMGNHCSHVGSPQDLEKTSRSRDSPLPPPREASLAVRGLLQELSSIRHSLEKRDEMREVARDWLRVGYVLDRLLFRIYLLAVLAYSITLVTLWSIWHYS
# Experimental: 5-HT3 antagonism can be determined by the radioligand receptor binding assay as described herein and in the in vivo Bezold-Jarisch reflex procedure.
# GR65630 binds to the 5-HT3 receptor. Brain cortices are obtained from male rats and a membrane fraction prepared by standard techniques. 0.04 mg of membrane prep is incubated with 0.2 nM [^3 H]-GR656630 for 60 minutes at 22° C. […] Membranes are filtered and washed 3 times and the filters are counted to determine [3H]-GR65630 specifically bound.*
# Kilpatrick G. J., Jones B. J. and Tyers M. B. Identification and distribution of 5-HT3 receptors in rat brain using radioligand binding. Nature, 330: 746-748, 1987.
# [2] = target: 5-HT4 receptor (Rattus norvegicus, UniProt Q62758); test: cell-based; settings: rat esophagus tunica muscularis mucosae contracted with carbachol (3 μM); tissues from 5 rats; 37° C.; read-out: EC50 values for agonists at this 5-HT4 receptor
# Experimental: Agonist activity was determined utilizing relaxation of carbachol-contracted rat tunica muscularis mucosae. One 2 cm segment of intrathoracic esophagus proximal to the diaphragm was removed from male rats, weighing approximately 300 gm, and the outer muscle layers removed. The inner tunica muscularis mucosa was mounted under 0.2-0.3 g of tension in a tissue bath containing oxygenated Tyrode's solution at 37° C. […] Following a 30 min equilibrium period, tissues were isometrically contracted with carbachol (3 μM) to obtain a tonic contraction. A stable plateau was obtained within 20 min when test compound was added cumulatively to relax the muscle strip. EC50 values were obtained for each agonist in tissues from 5 rats.
# Chain of 5-HT4 receptor (Q62758 whole entry): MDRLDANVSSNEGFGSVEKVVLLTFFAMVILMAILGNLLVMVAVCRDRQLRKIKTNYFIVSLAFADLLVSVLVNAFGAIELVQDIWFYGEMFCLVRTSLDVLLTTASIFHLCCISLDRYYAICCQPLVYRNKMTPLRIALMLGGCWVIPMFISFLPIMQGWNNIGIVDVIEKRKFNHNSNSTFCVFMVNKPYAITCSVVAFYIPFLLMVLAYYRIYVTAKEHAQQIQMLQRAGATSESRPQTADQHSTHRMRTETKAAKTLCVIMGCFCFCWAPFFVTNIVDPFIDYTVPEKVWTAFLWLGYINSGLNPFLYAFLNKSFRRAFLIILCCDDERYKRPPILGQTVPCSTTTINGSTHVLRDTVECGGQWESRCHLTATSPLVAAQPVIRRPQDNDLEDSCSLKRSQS
EC50 [2] [µM],Compound,also measured
–,COc1ccc2[nH]cc(C3=CCNCC3)c2c1 [RU24969],Ki [1]: 0.00185 µM
–,Cc1nc[nH]c1CCC(=O)c1cn(C)c2ccccc12 [GR65630],"% Specific Binding ([1]; radioligand, non-specific binding estimated in the presence of 1 uM ICS 205-930): 70%"
0.422,"COc1cc(N)c(Cl)cc1C(=O)NCC12CCCN1CCC2 [Example 1, 4-amino-5-chloro-2-methoxy-N-(tetrahydro-1H-pyrrolizin-7a (5H) -ylmethyl)benzamide]",–
0.216,"COc1cc(N)c(Cl)cc1C(=O)NCC12CC3CN(CC3C1)C2 [Example 9, 4-amino-5-chloro-N-[(hexahydro-2,5β-methano-1H-3aR,3aα,6aα-cyclopenta[c]pyrrol-5-yl)methyl]-2-methoxybenzamide]",–

# From US5516782A, “New meso-azacyclic aromatic acid amides and esters as novel serotonergic agents” (G. D. Searle & Co., priority 1995, dated 1996)
